According to US9200051B2, “Peptide compound” (TAKEDA PHARMACEUTICAL COMPANY LIMITED, priority 2013, dated 2015):
Where two headings read alike, the source gives them in different places. Square brackets hold non-standard residues; d marks the D form. Peptide text beside a SMILES is read from it. * marks the point of attachment. αMeF = C[C@](N)(Cc1ccccc1)C(=O)O; Isonicotinoyl = O=C(c1ccncc1)*; Aib = CC(C)(N)C(=O)O

Key:
Type in all cases: cell-based
human GIPR = biological target: T1, human GIPR (Homo sapiens, UniProt P48546); assay: Agonist activity against human GIPR, CRE-luciferase reporter assay (rise in intracellular cAMP) in hGIPR/CRE-LUC/CHO-K1 cells
T1 construct: expressed in transfected cells; host or cells: CHO-K1 (CRE-LUC/CHO-K1), plasmid hGIPR/pMSRα-neo
T1 sequence (P48546 22-466): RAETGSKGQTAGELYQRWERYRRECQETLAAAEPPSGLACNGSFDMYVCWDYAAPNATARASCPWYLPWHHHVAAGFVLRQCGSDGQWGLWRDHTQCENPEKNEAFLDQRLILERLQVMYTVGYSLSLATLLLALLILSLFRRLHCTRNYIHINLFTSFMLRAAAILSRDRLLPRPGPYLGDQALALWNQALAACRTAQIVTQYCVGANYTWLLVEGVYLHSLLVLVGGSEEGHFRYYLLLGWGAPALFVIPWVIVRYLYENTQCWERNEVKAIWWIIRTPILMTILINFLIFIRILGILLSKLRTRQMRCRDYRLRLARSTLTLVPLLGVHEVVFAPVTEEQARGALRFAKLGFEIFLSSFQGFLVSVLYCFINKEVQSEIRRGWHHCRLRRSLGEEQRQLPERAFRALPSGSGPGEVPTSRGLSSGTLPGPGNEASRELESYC
Excerpt: (§1) Evaluation of agonist activity against human GIPR, human GLP-1R and human glucagon R using rise in intracellular cAMP concentration as index
The human GIPR gene having a sequence identical to the sequence of GenBank Accession No. U39231 was cloned into pMSRα-neo vector to prepare hGIPR/pMSRα-neo.
(§2) The luciferase reporter gene having an upstream cAMP response sequence was introduced to CHO-K1 cells to construct CRE-LUC/CHO-K1 cells.
The plasmid hGIPR/pMSRα-neo obtained in (1) was introduced to the CRE-LUC/CHO-K1 cells obtained in (2) to obtain transformants. Next, a cell line induced to express luciferase, i.e., hGIPR/CRE-LUC/CHO-K1 cells, were selected from the obtained transformants by the addition of GIP.
(§3) The hGIPR/CRE-LUC/CHO-K1 cells were inoculated at a cell density of 25 μL/well (5×10^4 cells/well) to a 384-well white plate (Corning), and cultured overnight in Ham F12 medium containing 10% fetal bovine serum, 100 U/mL penicillin and 100 μg/mL streptomycin in a CO2 incubator of 37° C. A medium containing a test compound was added at a concentration of 5 μL/well to the cells, and the resultant cells were incubated for 4 hours in a CO2 incubator of 37° C. to give the final concentration of 1 μM. PicaGene LT7.5 (Toyo Ink Co., Ltd.) was added thereto at a concentration of 30 μL/well, and the mixture was shaken with light shielded. After 30 minutes, the luciferase activity was measured using a plate reader Envision (PerkinElmer). The luciferase activity in the presence of 10 nM GIP was defined as 100%, and the luciferase activity from the addition of DMSO instead of the test compound was defined as 0%. The GIPR agonist activity was calculated with a rise in intracellular cAMP concentration as an index.

human GLP-1R = biological target: T2, human GLP-1R (Homo sapiens, UniProt P43220); assay: Agonist activity against human GLP-1R, CRE-luciferase reporter assay in hGLP-1R/CRE-luc/CHO-K1 cells
T2 construct: expressed in transfected cells; host or cells: CHO-K1, plasmids hGLP-1/pIRESneo3 and Cre-luc(Zeo)
Excerpt: as §1
Four copies of the cAMP response sequence and the Zeocin resistance gene were introduced to pGL3(R2.2)-Basic Vector (Promega) to construct Cre-luc(Zeo) reporter plasmid.
The human GLP-1R gene having a sequence identical to the sequence of GenBank Accession No. NM_002062 was cloned into pIRESneo3 vector to prepare hGLP-1/pIRESneo3.
The Cre-luc(Zeo) obtained in (3) and the plasmid hGLP-1/pIRESneo3 obtained in (5) were introduced to CHO-K1 cells to obtain transformants. Next, a cell line induced to express luciferase, i.e., hGLP-1R/CRE-luc/CHO-K1 cells, were selected from the obtained transformants by the addition of GLP-1.
as §3
The GLP-1R agonist activity was assayed in the same way as above using the hGLP-1R/CRE-luc/CHO-K1 cells. The luciferase activity in the presence of 10 nM GLP-1 was defined as 100%, and the luciferase activity from the addition of DMSO instead of the test compound was defined as 0%. The GLP-1R agonist activity was calculated with a rise in intracellular cAMP concentration as an index.

human glucagon R = biological target: T3, human glucagon R (Homo sapiens, UniProt P47871); assay: Agonist activity against human glucagon R, CRE-luciferase reporter assay in hGlucagonR/CRE-LUC/CHO-K1 cells
T3 construct: expressed in transfected cells; host or cells: CHO-K1 (CRE-LUC/CHO-K1), plasmid hGlucagonR/pMSRα-neo
Excerpt: as §1, §2
The human glucagon R gene having a sequence identical to the sequence of GenBank Accession No. NM_000160 was cloned into pMSRα-neo vector to prepare hGlucagonR/pMSRα-neo.
The plasmid hGlucagonR/pMSRα-neo obtained in (7) was introduced to the CRE-LUC/CHO-K1 cells obtained in (2) to obtain transformants. Next, a cell line induced to express luciferase, i.e., hGlucagonR/CRE-LUC/CHO-K1 cells, were selected from the obtained transformants by the addition of glucagon.
as §3
The glucagon R agonist activity was assayed in the same way as above using the hGlucagonR/CRE-LUC/CHO-K1 cells. The luciferase activity in the presence of 10 nM glucagon was defined as 100%, and the luciferase activity from the addition of DMSO instead of the test compound was defined as 0%. The glucagon agonist activity was calculated with a rise in intracellular cAMP concentration as an index.

T3 sequence (P47871 26-477): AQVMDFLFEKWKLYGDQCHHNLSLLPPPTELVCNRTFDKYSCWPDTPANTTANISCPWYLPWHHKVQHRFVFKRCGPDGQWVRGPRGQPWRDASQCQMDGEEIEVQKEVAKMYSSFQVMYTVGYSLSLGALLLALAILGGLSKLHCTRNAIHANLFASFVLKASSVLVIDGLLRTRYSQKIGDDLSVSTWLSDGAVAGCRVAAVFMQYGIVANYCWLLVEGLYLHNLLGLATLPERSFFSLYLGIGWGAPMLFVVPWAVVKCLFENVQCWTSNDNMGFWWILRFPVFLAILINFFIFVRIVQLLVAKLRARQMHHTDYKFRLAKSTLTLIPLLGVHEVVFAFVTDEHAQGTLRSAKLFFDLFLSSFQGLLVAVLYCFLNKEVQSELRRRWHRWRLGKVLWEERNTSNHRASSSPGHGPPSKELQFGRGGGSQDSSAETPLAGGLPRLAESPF
T2 sequence (P43220 24-463): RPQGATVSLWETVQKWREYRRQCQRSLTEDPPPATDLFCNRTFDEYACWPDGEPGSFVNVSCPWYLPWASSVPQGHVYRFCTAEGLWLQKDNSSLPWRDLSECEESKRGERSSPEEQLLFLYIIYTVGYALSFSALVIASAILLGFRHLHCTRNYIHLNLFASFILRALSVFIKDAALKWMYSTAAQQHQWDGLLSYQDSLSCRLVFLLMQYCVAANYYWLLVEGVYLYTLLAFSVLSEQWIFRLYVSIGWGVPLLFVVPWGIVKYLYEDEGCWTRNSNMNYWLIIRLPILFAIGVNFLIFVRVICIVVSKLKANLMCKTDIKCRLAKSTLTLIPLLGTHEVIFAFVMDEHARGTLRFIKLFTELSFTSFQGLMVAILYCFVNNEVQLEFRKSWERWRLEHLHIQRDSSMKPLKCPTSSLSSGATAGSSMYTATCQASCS

Compound	EC50 (human GIPR) [nM]	EC50 (human GLP-1R) [nM]	EC50 (human glucagon R) [nM]	EC50 (human GIPR; hGIPR/CRE-LUC/CHO-K1 cells, 4 hours incubation, 10 nM GIP = 100%, read-out: Agonist activity (EC50) hGIPR) [nM]	EC50 (human GLP-1R; hGLP-1R/CRE-luc/CHO-K1 cells, 4 hours incubation, 10 nM GLP-1 = 100%, read-out: Agonist activity (EC50) hGLP-1R) [nM]	EC50 (human glucagon R; hGlucagonR/CRE-LUC/CHO-K1 cells, 4 hours incubation, 10 nM glucagon = 100%, read-out: Agonist activity (EC50) hGCGR) [nM]
CC[C@H](C)[C@H](NC(=O)[C@H](C)NC(=O)[C@H](Cc1ccc(O)cc1)NC(=O)[C@H](CC(=O)O)NC(=O)[C@H](CO)NC(=O)[C@@H](NC(=O)[C@](C)(Cc1ccccc1)NC(=O)[C@@H](NC(=O)CNC(=O)[C@H](CCC(=O)O)NC(=O)C(C)(C)NC(=O)[C@@H](N)Cc1ccc(O)cc1)[C@@H](C)O)[C@@H](C)O)C(=O)NC(C)(C)C(=O)N[C@@H](CC(C)C)C(=O)N[C@@H](CC(=O)O)C(=O)N[C@@H](CCCCN)C(=O)N[C@@H](CCC(N)=O)C(=O)N[C@@H](C)C(=O)N[C@@H](CCC(N)=O)C(=O)N[C@@H](CO)C(=O)N[C@@H](CCC(=O)O)C(=O)N[C@@H](Cc1ccccc1)C(=O)N[C@H](C(=O)N[C@@H](CCCCN)C(=O)N[C@@H](Cc1c[nH]c2ccccc12)C(=O)N[C@@H](CC(C)C)C(=O)N[C@@H](CC(C)C)C(=O)N[C@@H](CCCCN)C(=O)NCC(=O)NCC(=O)N1CCC[C@H]1C(=O)N[C@@H](CO)C(=O)N[C@@H](CO)C(=O)NCC(=O)N[C@@H](C)C(=O)N1CCC[C@H]1C(=O)N1CCC[C@H]1C(=O)N1CCC[C@H]1C(=O)N[C@@H](CO)C(=O)N[C@@H](CCCCN)C(N)=O)C(C)C [Example 3] (H-Y[Aib]EGT[αMeF]TSDYAI[Aib]LDKQAQSEFVKWLLKGGPSSGAPPPSK-NH2)	0.0071	0.013	> 1000			
CC(C)C[C@H](NC(=O)[C@H](CC(C)C)NC(=O)[C@H](Cc1c[nH]c2ccccc12)NC(=O)[C@H](CCCCN)NC(=O)[C@@H](NC(=O)[C@H](Cc1ccccc1)NC(=O)[C@H](CCC(=O)O)NC(=O)[C@H](C)NC(=O)[C@H](CCC(N)=O)NC(=O)[C@H](C)NC(=O)[C@H](CCC(N)=O)NC(=O)[C@H](CCCCN)NC(=O)[C@H](CC(=O)O)NC(=O)[C@H](CC(C)C)NC(=O)[C@](C)(Cc1ccccc1)NC(=O)[C@H](CCCCN)NC(=O)C(C)(C)NC(=O)[C@H](Cc1ccc(O)cc1)NC(=O)[C@H](CC(=O)O)NC(=O)[C@H](CO)NC(=O)[C@@H](NC(=O)[C@](C)(Cc1ccccc1)NC(=O)[C@@H](NC(=O)CNC(=O)[C@H](CCC(=O)O)NC(=O)C(C)(C)NC(=O)[C@@H](N)Cc1ccc(O)cc1)[C@@H](C)O)[C@@H](C)O)C(C)C)C(=O)N[C@@H](CCCCN)C(=O)NCC(=O)NCC(=O)N1CCC[C@H]1C(=O)N[C@@H](CO)C(=O)N[C@@H](CO)C(=O)NCC(=O)N[C@@H](C)C(=O)N1CCC[C@H]1C(=O)N1CCC[C@H]1C(=O)N1CCC[C@H]1C(=O)N[C@@H](CO)C(=O)N[C@@H](CCCCN)C(N)=O [Example 15] (H-Y[Aib]EGT[αMeF]TSDY[Aib]K[αMeF]LDKQAQAEFVKWLLKGGPSSGAPPPSK-NH2)	0.013	0.015	> 1000			
CC[C@H](C)[C@H](NC(=O)C(C)(C)NC(=O)[C@H](Cc1ccc(O)cc1)NC(=O)[C@H](CC(=O)O)NC(=O)[C@H](CO)NC(=O)[C@@H](NC(=O)[C@](C)(Cc1ccccc1)NC(=O)[C@@H](NC(=O)CNC(=O)[C@H](CCC(=O)O)NC(=O)C(C)(C)NC(=O)[C@@H](N)Cc1ccc(O)cc1)[C@@H](C)O)[C@@H](C)O)C(=O)NC(C)(C)C(=O)N[C@@H](CC(C)C)C(=O)N[C@@H](CC(=O)O)C(=O)N[C@@H](CCCCN)C(=O)N[C@@H](CCC(N)=O)C(=O)N[C@@H](C)C(=O)N[C@@H](CCC(N)=O)C(=O)N[C@@H](C)C(=O)N[C@@H](CCC(=O)O)C(=O)N[C@@H](Cc1ccccc1)C(=O)N[C@H](C(=O)N[C@@H](CCCCN)C(=O)N[C@@H](Cc1c[nH]c2ccccc12)C(=O)N[C@@H](CC(C)C)C(=O)N[C@@H](CC(C)C)C(=O)N[C@@H](CCCCN)C(=O)NCC(=O)NCC(=O)N1CCC[C@H]1C(=O)N[C@@H](CO)C(=O)N[C@@H](CO)C(=O)NCC(=O)N[C@@H](C)C(=O)N1CCC[C@H]1C(=O)N1CCC[C@H]1C(=O)N1CCC[C@H]1C(=O)N[C@@H](CO)C(N)=O)C(C)C [Example 6] (H-Y[Aib]EGT[αMeF]TSDY[Aib]I[Aib]LDKQAQAEFVKWLLKGGPSSGAPPPS-NH2)	0.0073	0.016	> 1000			
CC[C@H](C)[C@H](NC(=O)C(C)(C)NC(=O)[C@H](Cc1ccc(O)cc1)NC(=O)[C@H](CC(=O)O)NC(=O)[C@H](CO)NC(=O)[C@@H](NC(=O)[C@](C)(Cc1ccccc1)NC(=O)[C@@H](NC(=O)CNC(=O)[C@H](CCC(=O)O)NC(=O)C(C)(C)NC(=O)[C@H](Cc1ccc(O)cc1)NC(=O)c1ccncc1)[C@@H](C)O)[C@@H](C)O)C(=O)NC(C)(C)C(=O)N[C@@H](CC(C)C)C(=O)N[C@@H](CC(=O)O)C(=O)N[C@@H](CCCCN)C(=O)N[C@@H](CCC(N)=O)C(=O)N[C@@H](C)C(=O)N[C@@H](CCC(N)=O)C(=O)N[C@@H](C)C(=O)N[C@@H](CCC(=O)O)C(=O)N[C@@H](Cc1ccccc1)C(=O)N[C@H](C(=O)N[C@@H](CCCCN)C(=O)N[C@@H](Cc1c[nH]c2ccccc12)C(=O)N[C@@H](CC(C)C)C(=O)N[C@@H](CC(C)C)C(=O)N[C@@H](CCCCN)C(=O)NCC(=O)NCC(=O)N1CCC[C@H]1C(=O)N[C@@H](CO)C(=O)N[C@@H](CO)C(=O)NCC(=O)N[C@@H](C)C(=O)N1CCC[C@H]1C(=O)N1CCC[C@H]1C(=O)N1CCC[C@H]1C(=O)N[C@@H](CO)C(=O)N[C@@H](CCCCN)C(N)=O)C(C)C [Example 20] (Isonicotinoyl-Y[Aib]EGT[αMeF]TSDY[Aib]I[Aib]LDKQAQAEFVKWLLKGGPSSGAPPPSK-NH2)				0.026	0.13	> 1000
